Experimental data taken from patent US20230339854A1, “Negative Allosteric Modulation of GluN3-Containing N-Methyl-D-Aspartate Receptors” (Emory University, priority 2020, published 2023).
Values after ≈ are worked out from the molar mass of the structure shown. “Also recorded” adds a separate entry of the source. Read-outs that look alike come from different tables or passages of the source.

Columns and labels:
[1] = biological target: T1, human GluN1^FA,TL/GluN3A receptors (Homo sapiens, UniProt Q8TCU5); assay: Two-electrode voltage-clamp recordings of GluN1^FA,TL/GluN3A receptors in Xenopus oocytes; format: cell-based; conditions: for % Inhibition GluN1^FATL/GluN3A: fitted maximum at saturating test compound
T1 construct: Human GluN3A (NP_597702.2) and rat GluN3B (NP_579842.2) were synthesized and subcloned into SP6 plasmids; expressed in transfected cells; host or cells: Xenopus laevis oocytes, cRNA injection (GluN1:GluN3 1:3)
T1 sequence (Q8TCU5 24-1115, other chains not shown): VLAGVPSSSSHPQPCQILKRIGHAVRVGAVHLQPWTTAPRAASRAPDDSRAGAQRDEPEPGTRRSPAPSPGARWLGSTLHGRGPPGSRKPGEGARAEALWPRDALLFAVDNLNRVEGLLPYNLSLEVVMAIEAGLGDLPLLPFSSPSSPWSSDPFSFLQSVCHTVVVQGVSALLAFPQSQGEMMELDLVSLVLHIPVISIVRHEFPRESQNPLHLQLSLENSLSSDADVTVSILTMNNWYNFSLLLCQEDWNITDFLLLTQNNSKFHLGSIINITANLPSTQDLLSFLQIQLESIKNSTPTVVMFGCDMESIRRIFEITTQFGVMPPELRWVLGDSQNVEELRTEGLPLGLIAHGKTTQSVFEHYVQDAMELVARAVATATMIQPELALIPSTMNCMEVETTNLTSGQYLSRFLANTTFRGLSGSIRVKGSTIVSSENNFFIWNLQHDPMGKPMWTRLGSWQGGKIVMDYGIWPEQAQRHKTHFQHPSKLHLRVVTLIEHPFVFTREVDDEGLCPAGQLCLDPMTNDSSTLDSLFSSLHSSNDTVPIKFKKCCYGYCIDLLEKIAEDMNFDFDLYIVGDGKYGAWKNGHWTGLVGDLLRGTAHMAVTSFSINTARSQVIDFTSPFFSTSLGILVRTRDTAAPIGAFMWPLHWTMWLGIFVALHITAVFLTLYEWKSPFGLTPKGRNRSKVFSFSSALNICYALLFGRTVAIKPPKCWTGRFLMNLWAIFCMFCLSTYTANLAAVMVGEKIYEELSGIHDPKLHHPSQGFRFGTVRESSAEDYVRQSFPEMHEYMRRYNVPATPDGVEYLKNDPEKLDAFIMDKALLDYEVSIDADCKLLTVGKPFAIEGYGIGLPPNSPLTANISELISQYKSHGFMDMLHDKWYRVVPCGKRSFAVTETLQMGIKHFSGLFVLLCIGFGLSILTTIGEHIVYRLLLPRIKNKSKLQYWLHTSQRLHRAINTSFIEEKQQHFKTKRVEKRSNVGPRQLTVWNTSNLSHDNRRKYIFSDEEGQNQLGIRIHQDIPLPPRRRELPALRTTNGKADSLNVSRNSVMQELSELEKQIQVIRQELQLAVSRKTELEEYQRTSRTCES
Outline: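 Human GluN1 with human GluN3A cRNA (1:3) in oocytes, recorded 2-5 days post-injection at 23° C, holding −40 mV, in Ba2+-containing recording solution pH 7.4. Compounds screened at 10 or 30 μM; those inhibiting >20% given concentration-response fits for IC50, Hill slope and residual inhibition.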

[2] = biological target: T2, rat GluN1-4a/GluN3B receptors (Rattus norvegicus, UniProt P35439+Q8VHN2); assay: Two-electrode voltage-clamp recordings of GluN1-4a/GluN3B receptors in the presence of CGP-78608 (Xenopus oocytes); format: cell-based; conditions: pH 7.4; 0.5 μM CGP-78608; read-out: EC50, (95% CI) GluN1/GluN3B + CGP
T2 construct: Human GluN3A (NP_597702.2) and rat GluN3B (NP_579842.2) were synthesized and subcloned into SP6 plasmids; expressed in transfected cells; host or cells: Xenopus laevis oocytes, cRNA injection
T2 sequence (Q8VHN2 25-1002, other chains not shown): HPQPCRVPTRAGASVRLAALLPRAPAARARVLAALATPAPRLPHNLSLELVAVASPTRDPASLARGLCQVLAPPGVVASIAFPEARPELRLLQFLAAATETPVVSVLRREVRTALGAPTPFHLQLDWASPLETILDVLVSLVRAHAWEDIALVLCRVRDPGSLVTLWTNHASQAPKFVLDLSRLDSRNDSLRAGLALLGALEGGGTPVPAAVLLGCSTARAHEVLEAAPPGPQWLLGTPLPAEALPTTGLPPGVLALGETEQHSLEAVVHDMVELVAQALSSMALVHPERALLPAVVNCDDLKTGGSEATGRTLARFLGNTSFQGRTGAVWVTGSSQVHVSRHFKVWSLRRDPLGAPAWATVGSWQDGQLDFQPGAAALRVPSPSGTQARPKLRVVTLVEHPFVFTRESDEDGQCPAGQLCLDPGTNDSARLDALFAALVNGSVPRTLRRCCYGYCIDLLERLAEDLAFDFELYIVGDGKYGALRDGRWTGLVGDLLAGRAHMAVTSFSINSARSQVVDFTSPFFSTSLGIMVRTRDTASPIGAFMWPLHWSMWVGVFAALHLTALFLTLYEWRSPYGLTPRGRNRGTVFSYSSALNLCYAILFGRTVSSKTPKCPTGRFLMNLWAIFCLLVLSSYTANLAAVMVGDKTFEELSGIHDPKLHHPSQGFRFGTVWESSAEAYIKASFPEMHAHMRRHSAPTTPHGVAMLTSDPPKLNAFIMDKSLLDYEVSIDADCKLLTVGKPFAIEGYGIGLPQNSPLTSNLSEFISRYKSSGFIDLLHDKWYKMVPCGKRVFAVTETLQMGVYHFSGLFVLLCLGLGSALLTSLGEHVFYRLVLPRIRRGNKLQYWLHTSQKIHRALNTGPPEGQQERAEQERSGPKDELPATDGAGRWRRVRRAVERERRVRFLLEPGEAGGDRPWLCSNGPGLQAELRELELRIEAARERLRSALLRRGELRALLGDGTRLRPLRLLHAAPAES
From the text: (§1) cDNA encoding human wild-type (WT) GluN1-1a (GenBank accession numbers NP_015566, hereafter GluN1) and rat GluN1-1a (NP_058706.1) were synthesized and subcloned into pGEMHE plasmid; some experiments used the rat splice variant GluN1-4a (NP_001257531.1). Human GluN3A (NP_597702.2) and rat GluN3B (NP_579842.2) were synthesized and subcloned into SP6 plasmids. For most experiments, human GluN1 was co-expressed with human GluN3A, except for mutagenesis experiments where rat GluN1 was co-expressed with human GluN3A. Rat GluN1-4a was always expressed with rat GluN3B.
(§2) Defolliculated Xenopus laevis oocytes (stage V-VI) were obtained from Ecocyte BioScience (Austin, Texas), or prepared from commercially available Xenopus ovaries (Xenopus 1, Dexter, MI) as previously described (Hansen, et al., Mol. Pharmacol., 2013). A Drummond Nanoject II (Broomall, PA) was used to inject oocytes with cRNAs encoding GluN1 and GluN3 at a 1:3 ratio in RNase-free water. The cRNA was diluted as needed to give responses with amplitudes ranging between 200-2000 nA (0.2-10 ng total cRNA). Following cRNA injection, the oocytes were stored at 15-19° C. in Barth's solution that contained (in mM) 88 NaCl, 2.4 NaHCO3, 1 KCl, 0.33 Ca(NO3)2, 0.41 CaCl2), 0.82 MgSO4, and 5 Tris-HCl (pH 7.4 with NaOH), supplemented with 1 μg/ml streptomycin (Invitrogen, Carlsbad, CA) and 100 μg/ml gentamicin (Fisher Scientific, Pittsburgh, PA). Recordings were performed 2-5 days following cRNA microinjection at room temperature (23° C.) using a two-electrode voltage-clamp amplifier (OC725, Warner Instrument, Hamilton, CT). The signal was low-pass filtered at 10-20 Hz (4-pole, −3 dB Bessel) and digitized at the Nyquist rate using PCI-6025E or USB-6212 BNC data acquisition boards (National Instruments, Austin, TX) using EasyOocyte (http://www.easyoocyte.io/). Oocytes were placed in a custom-made chamber and continuously perfused (2.5 ml/min) with oocyte recording solution containing (in mM) 90 NaCl, 1 KCl, 10 HEPES, 0.5-1.0 BaCl2, and 0.01 EDTA (pH 7.4 with NaOH). Solutions were applied by gravity, and solution exchange was controlled through a rotary valve (Hamilton, Reno, NV). Recording electrodes were filled with 0.3-3.0 M KCl, and current responses were recorded at a holding potential of −40 mV.
(§3) Response (%)=(100−minimum)/(1+([concentration]/IC50)^nH)+minimum (2) • where nH is the Hill slope, IC50 is the concentration that produces a half-maximal effect, and minimum is the degree of residual inhibition at a saturating concentration of the negative allosteric modulator.
(§4) Selected compounds were also screened in the same assay as EU1180-438 to determine their effect on GluN3B.

[3] = biological target: T3, rat GluN1-4a/GluN3B receptors (Rattus norvegicus, UniProt Q8VHN2); assay: as above; format: cell-based
T3 construct: Human GluN3A (NP_597702.2) and rat GluN3B (NP_579842.2) were synthesized and subcloned into SP6 plasmids; expressed in transfected cells; host or cells: Xenopus laevis oocytes, cRNA injection
T3 sequence (Q8VHN2 25-1002, other chains not shown): as above
From the text: as §1, §2, §3, §4

[4] = biological target: native GluN1/GluN3A receptors (Mus musculus, UniProt A2AIR5); assay: Whole-cell patch-clamp of glycine-activated responses in hippocampal CA1 pyramidal cells, acute brain slices; format: cell-based; conditions: 30 μM; 1 μM CGP-78608; 10 mM glycine puffs
native GluN1/GluN3A receptors, sequence (A2AIR5 27-1135, other chains not shown): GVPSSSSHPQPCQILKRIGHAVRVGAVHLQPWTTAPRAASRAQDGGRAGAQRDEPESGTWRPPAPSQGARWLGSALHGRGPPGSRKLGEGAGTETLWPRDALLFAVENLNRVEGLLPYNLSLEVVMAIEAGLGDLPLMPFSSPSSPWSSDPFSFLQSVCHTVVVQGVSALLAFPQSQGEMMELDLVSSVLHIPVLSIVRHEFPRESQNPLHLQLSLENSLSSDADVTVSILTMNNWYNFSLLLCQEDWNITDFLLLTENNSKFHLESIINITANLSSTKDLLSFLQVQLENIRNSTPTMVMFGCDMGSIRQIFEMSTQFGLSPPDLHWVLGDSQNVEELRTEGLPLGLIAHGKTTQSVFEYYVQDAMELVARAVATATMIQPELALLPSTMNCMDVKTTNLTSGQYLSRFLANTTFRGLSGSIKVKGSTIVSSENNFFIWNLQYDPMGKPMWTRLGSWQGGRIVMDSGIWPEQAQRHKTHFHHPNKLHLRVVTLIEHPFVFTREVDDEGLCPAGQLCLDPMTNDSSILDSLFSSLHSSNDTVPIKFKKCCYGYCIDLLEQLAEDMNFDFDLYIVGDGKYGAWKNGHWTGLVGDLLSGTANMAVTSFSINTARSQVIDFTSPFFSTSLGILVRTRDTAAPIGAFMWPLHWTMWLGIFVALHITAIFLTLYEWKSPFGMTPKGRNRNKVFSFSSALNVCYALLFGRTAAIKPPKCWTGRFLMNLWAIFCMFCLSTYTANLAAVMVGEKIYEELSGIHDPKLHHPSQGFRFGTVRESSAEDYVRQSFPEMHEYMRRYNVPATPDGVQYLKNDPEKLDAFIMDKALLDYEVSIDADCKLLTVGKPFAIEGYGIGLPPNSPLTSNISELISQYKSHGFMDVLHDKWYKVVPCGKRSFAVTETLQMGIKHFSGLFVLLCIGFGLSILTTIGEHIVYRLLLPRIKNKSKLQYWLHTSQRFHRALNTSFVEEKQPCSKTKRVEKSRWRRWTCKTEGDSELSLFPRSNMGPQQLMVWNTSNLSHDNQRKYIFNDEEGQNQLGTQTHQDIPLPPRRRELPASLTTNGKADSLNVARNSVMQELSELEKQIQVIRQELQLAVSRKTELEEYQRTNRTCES

[5] = system: GluN1/GluN2 NMDA receptors; assay: Whole-cell patch-clamp of NMDA-activated responses in hippocampal CA1 pyramidal cells, acute brain slices; format: cell-based, mouse; conditions: 30 μM; 0.5 mM NMDA
[6] = Maximum solubility by nephelometry; format: physicochemical; conditions: aqueous buffer, kinetic from dmso stock; oocyte recording buffer (pH 7.4)
Procedure: The maximum solubility for the synthesized compounds was determined using a BMG Labtech Nephelostar™ nephelometer according to the manufacturer's instructions. For example, EU1180-438 was taken up in DMSO to prepare a 10 mM stock solution. The 10 mM solution was serially diluted into eleven concentrations (10, 5, 2.5, 1.25, 0.625, 0.3125, 0.1563, 0.0781, 0.0391, 0.0193, and 0.0098 mM) at the top of a clear-bottom 96-well plate. These were then each distributed into the subsequent 7 wells in 2.5 μL increments and diluted 100-fold (2.5 μL to 250 μL) with oocyte recording buffer (pH 7.4) into concentrations of 100, 50, 25, 12.5, 6.25, 3.125, 1.563, 0.781 0.391, 0.193, and 0.098 μM. The 96-well plate was shaken gently for 90 minutes before analysis.

[7] = 500 nM CGP-78608 plus 100 μM glycine

In the case of `COc1ccc(OCC(c2ccc(OC)cc2)N2Cc3ccccc3C2=O)cc1` (racemic) [EU1180-438, 2-(2-(4-methoxyphenoxy)-1-(4-methoxyphenyl)ethyl)isoindolin-1-one], the “effect of increasing glycine concentration on inhibition” value [1] is reported as “not altered by increasing glycine concentration”, the “voltage dependence of inhibition (current-voltage relationship)” value ([1]; 4 μM compound) is reported as “no effect of holding voltage on EU1180-438 inhibition” and the Slope ([1]; concentration-response curve, 1000 μM glycine) is reported as 1.24. The “% Inhibition GluN1^FATL/GluN3A” value ([1]; pH 6.8) was 72%^a, (n = 7), the “% Inhibition GluN1^FATL/GluN3A” value ([1]; pH 7.4) was 82%, (n = 18) and the “maximal inhibition at saturating concentrations” value ([1]; pH 6.8) was 72%. The IC50 ([1]; pH 6.8, holding potential −40 mV, read-out: EC50, (95% CI) GluN1^FATL/GluN3A) was 4.2 µM, the IC50 ([1]; pH 6.8, read-out: IC50) was 4.2 µM and the “inhibition at a saturating concentration” value ([1]; pH 7.4) was 82%. For the same compound, the IC50 ([1]; pH 7.4, holding potential −40 mV, read-out: EC50, (95% CI) GluN1^FATL/GluN3A) was 3.5 µM, the remaining activity at 10 µM ([1]; read-out: response in the presence of compound, % of control) was 29 ± 4.2% and the minimum ([1]; residual response at saturating concentration, 1000 μM glycine) was 18%. The IC50 ([1]; responses activated by 1000 μM glycine, pH 7.4, read-out: IC50) was 3.5 µM, the EC50 [2] was 2.2 µM and the maximal inhibition ([3]; 500 nM CGP-78608) was 93%. For the same compound, the Slope [3, 7] was 1.5, the minimum [3, 7] was 7% and the “% Inhibition GluN1/GluN3B + CGP” value ([3]; fitted maximum at saturating test compound, pH 7.4, 0.5 μM CGP-78608) was 93%, (n = 8). The “effect on glycine-activated responses from native GluN1/GluN3A receptors” value [4] was “strong inhibition; also recorded: inhibited significantly”, the “effect on NMDA-activated responses mediated by GluN1/GluN2 NMDA receptors” value [5] was “not modulated; also recorded: did not affect” and the solubility at 90 min [6] was 37 µM (≈ 14.4 µg/mL).
